Data taken from article PMC8980233, “Differentiating the Neuropharmacological Properties of Nicotinic Acetylcholine Receptor-Activating Alkaloids” (Frontiers in Pharmacology, 2022).
Read-outs that look alike come from different tables or passages of the source.

How the values were obtained:
α4β2 nAChR = α4β2 nAChR (Homo sapiens, UniProt P17787+P43681); experiment: nAChR functional assay, automated patch-clamp; assay type: cell-based
Description: (§1) Electrophysiological responses were recorded using an automated patch-clamp Patchliner Octo® system (Nanion Technologies, Munich, Germany) equipped with two EPC-10 Quadro patch-clamp amplifiers (HEKA Elektronik, Lambrecht, Germany) as described by ([Alijevic et al., 2020]). In brief, Chinese hamster ovary (CHO) or human embryonic kidney-293 (HEK-293) cells stably expressing human nAChRs (Charles River Laboratories, Wilmington, MA, United States) were maintained in DMEM/F12 medium (Gibco, Thermo Fisher Scientific, Waltham, MA, United States) supplemented with 10% heat-inactivated fetal bovine serum (FBS; Gibco) and penicillin–streptomycin (100 U/mL and 0.1 mg/ml, respectively; Sigma-Aldrich, St. Louis, MO, United States) at 37°C in 5% CO2 and 70% humidity. The following selection antibiotics were used for the cell lines: G418 (0.25 mg/ml; Sigma-Aldrich) and Zeocin^TM (0.4 mg/ml; InvivoGen, San Diego, CA, United States) for α7/Ric3 nAChR and α3β4 nAChR cells; puromycin (8 μg/ml; InvivoGen) and hygromycin B (0.4 mg/ml; Gibco) for α4β2 nAChR cells; and G418 (0.5 mg/ml), puromycin (0.25 μg/ml), and hygromycin B (0.02 mg/ml) for α6/3β2/β3 nAChR cells. The cells were used for characterizing nAChR pharmacology, because no endogenous ionotropic nicotinic receptors are found ([Roncarati et al., 2008]; [Papke and Smith-Maxwell, 2009]; [Kirsch et al., 2016]; [Scheffel et al., 2018]). The subunit distributions in the cells have been previously described ([Alijevic et al., 2020]). The human nAChRs were selected due to the lack of commercially available nAChR expression systems for mouse or zebrafish. The translatability of findings between zebrafish and human nAChR activities have been previously reported ([Papke and Smith-Maxwell, 2009]; [Papke et al., 2012]; [Alijevic et al., 2020]).
(§2) On the day of the experiment, nAChR-expressing cells were suspended in extracellular solution (in mM: 140 NaCl, 4KCl, one MgCl2, two CaCl2, five glucose, and 10 HEPES, adjusted to pH 7.4 with NaOH (298 mOsmol)), then placed in the Patchliner Octo® system. The internal solution contained in mM: 50 KCl, 60 kF, 10 NaCl, 20 EGTA, and 10 HEPES, adjusted to pH 7.2 with KOH (285 mOsmol). […] Data were analyzed using the Patchmaster software and corrected for leak current. The data acceptance criteria were as follows: seal resistance >100 MΩ; seal resistance loss variation <50%; access resistance <20 MΩ; and minimum current amplitude elicited by maximal effect concentration acetylcholine >50 pA. Offline data analysis was performed in OpenOffice™ (v4.1.2; The Apache Software Foundation, Wakefield, MA, United States). Data are presented as mean ± S.D. All experiments were performed at room temperature (24°C) and repeated at least three times. Igor Pro (v6.2.2.2; WaveMetrics, Lake Oswego, OR, United States) or Prism (v8.2.1) were used for assessing the concentration–response curves.

α6/3β2β3 nAChR = α6/3β2β3 nAChR (Homo sapiens, UniProt P17787+P32297+Q15825); experiment: nAChR functional assay, automated patch-clamp; assay type: cell-based
Description: as §1, §2

[1] = tested on: zebrafish (Danio rerio; strain AB); experiment: Zebrafish novel tank test (NTT)
Description: Adult male and female wild-type zebrafish were treated with the compounds for 20 min in a final volume of 50 ml in a 250-ml treatment beaker one fish at a time. The fish were briefly rinsed in fresh system water, and then immediately transferred to a trapezoidal tank (14.6 cm height x 5.5 cm width x 27.9 cm top length and x 23.6 cm bottom length) filled with 1.5 L system water. The behavior of the fish was monitored for the next 5 min by using the Noldus EthoVision XT system (Wageningen, Netherlands), with the camera placed approximately 1 m from the test tank. The part of the tank filled with water (11.5 cm height) was virtually divided into top, center, and bottom of equal heights (approximately 3.8 cm per segment) for the analysis. The average time spent at the top and bottom portions of the tank was analyzed to determine the anxiety-like behavior of fish. The average total distance travelled and freezing time were calculated to determine the effects of the compounds on the general behavior of fish. Freezing was defined by a complete cessation of movement except for gills and eyes ([Kalueff et al., 2013]). A minimum of 12 fish (6 females and 6 males) per condition were used for the study. The experimenter was blind to the test conditions.
If not, the dose was reduced until no obvious signs of tolerability problems were observed. […] The concentrations were calculated based on the free base molecular weight. Buspirone—a clinical anxiolytic drug used acutely and chronically to investigate the change in the anxiety-like behavior ([Maximino, et al., 2011]; [Maximino, et al., 2013])—was included as a positive control.

[2] = tested on: dopamine release from striatal synaptosomes; experiment: In vitro [3H]dopamine release from crude striatal synaptosomes; assay type: biochemical, rat; details: for EC50: striatal synaptosomes
Description: In brief, male Sprague Dawley rats (200–225 g) were terminated by cervical dislocation followed by decapitation. The striatums or hippocampi were dissected and homogenized in ice-cold 0.32 M sucrose using a Dounce homogenizer. The homogenates were centrifuged at 100 x g for 5 min to pellet cell debris. The supernatants were collected and centrifuged at 17,000 x g for 10 min at 4°C to pellet crude synaptosomes.
The [^3H]norepinephrine- or [^3H]dopamine-treated crude synaptosomes were loaded onto closed filter chambers containing Whatman® Grade GF/C Glass Microfiber filters (Sigma-Aldrich, Merck KGaA, Darmstadt, Germany) and placed in a superfusion system. […] To ensure an even flow over the synaptosomal bed, trapped air bubbles were removed from the filters prior to collection of the fractions. After a superfusion period of 40 min, three basal fractions (1.5 ml/fraction) were collected first, followed by three fractions (1.5 ml/fraction) containing the test compound. Two additional fractions were collected in the presence of 30 mM KCl to depolarize the synaptosomes. […] Once all fractions were collected, the filters holding the crude synaptosome samples were removed and dried overnight at room temperature. On the following day, the scintillation cocktail was added and the filters were counted to determine residual radioactivity.
Compound-evoked release of neurotransmitters was calculated by subtracting the counts per minute (CPM) in the two basal fractions collected immediately prior to compound addition from those in the two fractions collected immediately following compound addition. The compound-evoked release was then expressed as a percentage of the basal release from that chamber. Potassium-evoked release was calculated by subtracting the CPM in the fraction immediately prior to KCl addition from the CPM in the […] immediately following potassium addition. Stimulated release was calculated as the percentage of basal release for that chamber. The increase in stimulated release above the baseline (no compound) release for that experimental run was determined, and the latter values were plotted on the graphs. Dose–response curves were determined using non-linear curve fitting in Prism (GraphPad Software, Inc, San Diego, CA, United States). All experiments were repeated at least three times.

[3] = 1, 3, and 10 mg/L, 20 min treatment
[4] = only at the highest dose tested (10 mg/L)

α4β2 nAChR, sequence (P43681 29-627 limits assumed): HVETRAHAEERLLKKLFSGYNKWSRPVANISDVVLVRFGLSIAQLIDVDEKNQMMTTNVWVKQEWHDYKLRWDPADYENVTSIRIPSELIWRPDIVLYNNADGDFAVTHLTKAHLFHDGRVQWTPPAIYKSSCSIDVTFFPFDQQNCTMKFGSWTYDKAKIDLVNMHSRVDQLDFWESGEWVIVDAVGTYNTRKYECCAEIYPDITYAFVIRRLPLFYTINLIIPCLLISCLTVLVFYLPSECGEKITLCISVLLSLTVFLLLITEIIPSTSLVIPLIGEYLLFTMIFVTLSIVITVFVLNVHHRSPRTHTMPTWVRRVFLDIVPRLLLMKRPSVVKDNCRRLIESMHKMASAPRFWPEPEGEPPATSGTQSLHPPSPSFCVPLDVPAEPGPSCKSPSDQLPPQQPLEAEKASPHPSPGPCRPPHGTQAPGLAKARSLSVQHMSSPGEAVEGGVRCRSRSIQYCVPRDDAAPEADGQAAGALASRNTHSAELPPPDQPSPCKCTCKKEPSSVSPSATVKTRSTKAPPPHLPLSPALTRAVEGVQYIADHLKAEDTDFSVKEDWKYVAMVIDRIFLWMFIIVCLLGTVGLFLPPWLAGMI
α4β2 nAChR, sequence (P17787 26-502): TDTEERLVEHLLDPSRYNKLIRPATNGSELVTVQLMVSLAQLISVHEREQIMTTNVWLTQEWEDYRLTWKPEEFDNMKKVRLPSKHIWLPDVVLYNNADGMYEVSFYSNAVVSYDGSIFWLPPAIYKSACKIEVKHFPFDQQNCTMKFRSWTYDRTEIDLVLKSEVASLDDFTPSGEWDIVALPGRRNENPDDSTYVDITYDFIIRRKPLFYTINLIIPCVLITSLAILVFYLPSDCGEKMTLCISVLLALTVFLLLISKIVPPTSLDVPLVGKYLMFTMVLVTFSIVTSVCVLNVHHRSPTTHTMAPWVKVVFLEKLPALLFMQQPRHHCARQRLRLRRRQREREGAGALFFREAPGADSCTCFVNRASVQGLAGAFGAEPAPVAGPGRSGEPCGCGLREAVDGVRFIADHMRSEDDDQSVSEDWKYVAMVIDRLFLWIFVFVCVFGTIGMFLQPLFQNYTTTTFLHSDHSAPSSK
α6/3β2β3 nAChR, sequence (Q15825+P32297 fused with the stated changes): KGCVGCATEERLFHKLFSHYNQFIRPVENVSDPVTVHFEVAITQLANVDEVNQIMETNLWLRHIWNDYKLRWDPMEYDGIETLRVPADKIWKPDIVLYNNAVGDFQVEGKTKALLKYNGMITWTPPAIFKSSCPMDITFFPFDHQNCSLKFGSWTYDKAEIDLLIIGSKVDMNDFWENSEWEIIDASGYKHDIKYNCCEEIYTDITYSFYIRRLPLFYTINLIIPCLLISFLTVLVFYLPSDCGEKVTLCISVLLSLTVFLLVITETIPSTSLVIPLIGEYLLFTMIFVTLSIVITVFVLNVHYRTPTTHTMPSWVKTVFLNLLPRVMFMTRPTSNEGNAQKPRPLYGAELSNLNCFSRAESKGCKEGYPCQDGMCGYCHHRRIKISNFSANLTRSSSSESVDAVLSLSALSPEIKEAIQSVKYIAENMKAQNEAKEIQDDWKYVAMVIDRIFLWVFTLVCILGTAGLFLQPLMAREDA
α6/3β2β3 nAChR, sequence (P17787 26-502): as the sequence (P17787 26-502) above
α6/3β2β3 nAChR, sequence (Q05901 25-458 partner limits assumed): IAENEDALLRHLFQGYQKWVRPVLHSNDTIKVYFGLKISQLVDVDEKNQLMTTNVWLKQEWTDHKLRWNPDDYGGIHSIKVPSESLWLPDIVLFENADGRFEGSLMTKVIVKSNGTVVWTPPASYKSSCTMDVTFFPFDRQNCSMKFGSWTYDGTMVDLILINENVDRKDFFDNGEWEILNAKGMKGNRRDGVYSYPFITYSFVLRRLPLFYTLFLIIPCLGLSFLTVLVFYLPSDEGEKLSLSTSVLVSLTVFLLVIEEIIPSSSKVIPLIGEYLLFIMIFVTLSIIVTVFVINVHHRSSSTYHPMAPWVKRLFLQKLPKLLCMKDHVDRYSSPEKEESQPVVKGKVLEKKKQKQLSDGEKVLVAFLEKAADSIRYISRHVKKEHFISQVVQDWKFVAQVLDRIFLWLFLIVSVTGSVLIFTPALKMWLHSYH

In the case of `CN1CCC[C@H]1c1cccnc1` [Nicotine, (-)-Nicotine], the “agonist type at α4β2 nAChR” value (α4β2 nAChR) is reported as “potent full agonist”, the “agonist type at α6/3β2β3 nAChR” value (α6/3β2β3 nAChR) is reported as “potent full agonist” and the “time spent at the bottom” value [1, 3] is reported as “reduced the time spent at the bottom”. The “time spent at the top” value [1, 3] was “increased the time spent at the top”, the freezing response ([1]; 1 and 10 mg/L) was “no freezing response” and the total distance traveled ([1]; 1 and 10 mg/L) was “decreased total distance traveled”. The EC50 [2] was 190 nM.

For `C1=CCC(c2cccnc2)NC1` (racemic) [Anatabine, (±)-Anatabine], the “% of the full receptor activity, α4β2 nAChR” value (α4β2 nAChR; preliminary, data not shown) was about 60%, the EC50 (α6/3β2β3 nAChR) was 3600 ± 300 nM and the “partial activation of α6-containing nAChRs, % of nicotine” value (α6/3β2β3 nAChR; preliminary data) was “approximately 67%”. The “% of the full receptor activity, α6/3β2β3 nAChR” value (α6/3β2β3 nAChR; preliminary, data not shown) was about 70%, the total distance travelled ([1]; 0.3 and 10 mg/L) was “reduced” and the freezing time ([1]; only at 0.3 mg/L) was “increased”. The “time spent at the bottom” value [1, 4] was “reduced the time spent at the bottom”, the “time spent at the top” value [1, 4] was “increased the time spent at the top” and the EC50 [2] was 1760 nM.

In the case of `CN1C(=O)CC[C@H]1c1cccnc1` [Cotinine, (-)-cotinine], the EC50 (α4β2 nAChR; mean ± S.D.) is reported as over 100000 nM, the EC50 (α6/3β2β3 nAChR; mean ± S.D., read-out: α6/3β2β3 EC50) is reported as over 100000 nM and the freezing time ([1]; 100 mg/L) is reported as “without affecting their freezing time”. For the same molecule, the total distance traveled ([1]; 100 mg/L) was “reduced”, the “time spent at the bottom” value ([1]; 100 mg/kg, 20 min treatment) was “spent less time at the bottom” and the “time spent at the top” value ([1]; any doses (30, 100, and 300 mg/L)) was “not affected”. For the same molecule, the “time spent at the bottom” value ([1]; other concentrations (30 and 300 mg/L)) was “no effect”, the “concentration inducing anxiolytic-like effect, fold higher than nicotine” value ([1]; zebrafish) was 100 fold and the dopamine release ([2]; at higher concentrations) was 20–30%.
